# Assay results as given in patent publication US9682961B2, “Quinazoline derivative” (CARNA BIOSCIENCES, INC., priority 2013, dated 2017).
# Legend:
# [1] = test system: human-derived colorectal cancer cell line HCT116; test: Antitumor effects in mice model subcutaneously transplanted with human-derived cancer cell line; assay type: in vivo; conditions: oral, twice a day for 14 days, HCT116 nude mice
# Procedure: The antitumor effects of the compound of the present invention were studied using nude mice subcutaneously transplanted with a human-derived colorectal cancer cell line HCT116, in which the Wnt signaling pathway was constantly activated.
# HCT116 cells cultured in the same manner as in Test Example 2 were adjusted with D-PBS (NACALAI TESQUE, INC.) so as to have a cell concentration of 7.5×10^7/mL, and the cell suspension was ice cooled in a 15 mL tube. To the cell suspension, Matrigel (BD Biosciences Co.) was added in an amount of one-fourth of the cell suspension to prepare a preparation for cell transplantation. Into the back of BALB/c Slc-nu/nu mice (female, 8 weeks old, Japan SLC, Inc.), 0.1 mL of the preparation for cell transplantation was subcutaneously injected. […]
# To the respective mice transplanted with cancer cells (nine in each group), forced oral administration of doses of the substance to be tested calculated from their body weights was performed twice a day (at intervals of six hours or more) for 14 days in total. Tumor volumes of the respective mice were calculated using the following formulas, and the antitumor effects were evaluated using a relative tumor volume ratio as an indicator.
# c-MYC gene expression = test: Expression level of Wnt/β-catenin target gene c-MYC by real-time PCR in HCT116 cells; assay type: cell-based, human; conditions: 10 and 3 μM, 24 hours
# Procedure: Effects of the compound of the present invention on Wnt/β-catenin signaling activity were studied using the real-time PCR method as well as using as an indicator changes in expression levels of target genes of the Wnt/β-catenin signaling pathway. To a RPMI 1640 medium (NACALAI TESQUE, INC.), 10% FBS (AusGeneX PTY LTD.) and 1% Penicillin/Streptomycin (NACALAI TESQUE, INC.) were added to prepare a cell culture medium (hereinafter referred to as medium 1). In a T75 flask, HCT116 cells (ATCC No. CCL-247) were added to the medium 1. The cells in the flask were cultured in the 5% CO2 incubator. The cultured HCT116 cells were diluted with the medium 1 so as to have a cell concentration of 1.1×10^5 cells/mL. Into the T75 flask, 13.5 mL of the diluted cells was seeded, followed by culturing overnight in the 5% CO2 incubator. […] Total RNA concentration was measured by a microspectrophotometer (Thermo Fisher Scientific Inc., Nano Drop ND-1000). […] The results were calculated as the expression ratio of the target gene to the endogenous control gene (β-Actin) by the comparative Ct method using a DMSO group as a reference.
compound,measurement,setting,value
"O[C@H]1CC[C@@H](Oc2cccc3cnc(Nc4ccc5nc[nH]c5c4)nc23)CC1 [Example 1, cis-4-({2-[(1H-benzo[d]imidazol-6-yl)amino]quinazolyn-8-yl}oxy)cyclohexanol]",Tumor growth inhibition rate (TGI) on the last administration day,[1]; 40 mg/kg,42%
same,Tumor growth inhibition rate (TGI) on the last administration day,[1]; 80 mg/kg,70%
same,c-MYC gene expression,c-MYC gene expression,inhibited the expression of AXIN2 and c-MYC
